In ChEMBL document CHEMBL6071160, “Identification of a novel 10-hydroxyevodiamine prodrug as a potent topoisomerase inhibitor with improved aqueous solubility for treatment of hepatocellular carcinoma” (Eur J Med Chem, 2024):
Converted amounts (≈) assume the structure as drawn.

Tests used:
[1] = tested on: Huh-7; assay: Antiproliferative activity against human Huh-7 cells assessed as inhibition of cell proliferation incubated for 72 hrs by MTT assay; assay type: functional, cell-based; settings: Huh-7, 72 h
[2] = tested on: SK-HEP1; assay: Antiproliferative activity against human SK-HEP1 cells assessed as inhibition of cell proliferation incubated for 72 hrs by MTT assay; assay type: functional, cell-based; settings: SK-HEP1, 72 h
[3] = Aqueous solubility of the compound […] measured after 72 hrs in shaking by HPLC analysis; assay type: physicochemical
[4] = tested on: HepG2; assay: Antiproliferative activity against human HepG2 cells assessed as inhibition of cell proliferation incubated for 72 hrs by MTT assay; assay type: functional, cell-based; settings: HepG2, 72 h
[5] = tested on: Huh-7; assay: Induction of apoptosis in human Huh-7 cells assessed as necrotic cells at 80 nM measured after 24 hrs by Annexin-V-FITC/PI analysis (reference value: 0.27%); assay type: functional
[6] = tested on: SK-HEP1; assay: Induction of apoptosis in human SK-HEP1 cells assessed as ROS generation by measuring DCFH2-DA stained cells at 80 nM measured after 24 hrs […] (reference value: 0.14%); assay type: functional
[7] = tested on: Huh-7; assay: Induction of apoptosis in human Huh-7 cells assessed as viable cells at 80 nM measured after 24 hrs by Annexin-V-FITC/PI analysis (reference value: 97.46%); assay type: functional; settings: read-out: Activity
[8] = tested on: Huh-7; assay: Induction of apoptosis in human Huh-7 cells assessed as early apoptotic cells at 80 nM measured after 24 hrs by Annexin-V-FITC/PI analysis (reference value: 1.04%); assay type: functional
[9] = tested on: Huh-7; assay: Induction of cell cycle arrest in human Huh-7 cells assessed as accumulation of cells at G1 phase 80 nM measured after 24 hrs by flow cytometric assay (reference value: 63.01%); assay type: functional
[10] = tested on: SK-HEP1; assay: Induction of cell cycle arrest in human SK-HEP1 cells assessed as accumulation of cells at S phase 80 nM measured after 24 hrs by flow cytometric assay (reference value: 30.04%); assay type: functional
[11] = tested on: SK-HEP1; assay: Induction of apoptosis in human SK-HEP1 cells assessed as loss of mitochondrial membrane potential by measuring JC-1 stained cells at 80 nM measured after 24 hrs by JC-1 staining based flow cytometry (reference value: 0.49%); assay type: functional
[12] = tested on: SK-HEP1; assay: Induction of apoptosis in human SK-HEP1 cells assessed as necrotic cells at 80 nM measured after 24 hrs by Annexin-V-FITC/PI analysis (reference value: 0.70%); assay type: functional
[13] = tested on: SK-HEP1; assay: Induction of cell cycle arrest in human SK-HEP1 cells assessed as accumulation of cells at G2 phase 80 nM measured after 24 hrs by flow cytometric assay (reference value: 22.41%); assay type: functional
[14] = tested on: SK-HEP1; assay: Induction of cell cycle arrest in human SK-HEP1 cells assessed as accumulation of cells at G1 phase 80 nM measured after 24 hrs by flow cytometric assay (reference value: 47.55%); assay type: functional
[15] = tested on: Huh-7; assay: Induction of apoptosis in human Huh-7 cells assessed as late apoptotic cells at 80 nM measured after 24 hrs by Annexin-V-FITC/PI analysis (reference value: 1.23%); assay type: functional
[16] = tested on: Huh-7; assay: Induction of cell cycle arrest in human Huh-7 cells assessed as accumulation of cells at S phase 80 nM measured after 24 hrs by flow cytometric assay (reference value: 23.33%); assay type: functional
[17] = tested on: SK-HEP1; assay: Induction of apoptosis in human SK-HEP1 cells assessed as early apoptotic cells at 80 nM measured after 24 hrs by Annexin-V-FITC/PI analysis (reference value: 1.45%); assay type: functional
[18] = tested on: SK-HEP1; assay: Induction of apoptosis in human SK-HEP1 cells assessed as viable cells at 80 nM measured after 24 hrs by Annexin-V-FITC/PI analysis (reference value: 97.20%); assay type: functional; settings: read-out: Activity
[19] = tested on: Huh-7; assay: Induction of cell cycle arrest in human Huh-7 cells assessed as accumulation of cells at G2 phase 80 nM measured after 24 hrs by flow cytometric assay (reference value: 13.66%); assay type: functional
[20] = tested on: SK-HEP1; assay: Induction of apoptosis in human SK-HEP1 cells assessed as late apoptotic cells at 80 nM measured after 24 hrs by Annexin-V-FITC/PI analysis (reference value: 0.64%); assay type: functional
[21] = tested on: Huh-7; assay: Induction of apoptosis in human Huh-7 cells assessed as loss of mitochondrial membrane potential by measuring JC-1 stained cells at 80 nM measured after 24 hrs by JC-1 staining based flow cytometry (reference value: 2.27%); assay type: functional
[22] = tested on: Huh-7; assay: Induction of apoptosis in human Huh-7 cells assessed as ROS generation by measuring DCFH2-DA stained cells at 80 nM measured after 24 hrs […] (reference value: 0.45%); assay type: functional
[23] = Antiproliferative activity against human Doxorubicin-resistant SMMC-7721 cell assessed as inhibition of cell proliferation incubated for 72 hrs by MTT assay; assay type: functional, cell-based; settings: SMMC-7721, 72 h
[24] = Drug resistance index, ratio of IC50 for antiproliferative activity against human SMMC-7721 cells to antiproliferative activity against human Doxorubicin-resistant SMMC-7721 cells; assay type: functional
[25] = tested on: SMMC-7721; assay: Antiproliferative activity against human SMMC-7721 cells assessed as inhibition of cell proliferation incubated for 72 hrs by MTT assay; assay type: functional, cell-based; settings: SMMC-7721, 72 h

Row | SMILES | IC50 [1] | IC50 [2] | solubility thermodynamic at 72 h [3] | IC50 [4] | other results
1 | CN(C)C(=O)Oc1ccc2[nH]c3c(c2c1)CCN1C(=O)c2cc(F)cc(F)c2N(c2cccc(F)c2)C31 (stereo not drawn) | > 1620 nM | > 1620 nM | 3.1 µg/mL (≈ 6.12 µM) | > 1620 nM | 
2 | O=C1c2cc(F)cc(F)c2N(c2cccc(F)c2)C2c3[nH]c4ccc(OCCN5CCCCC5)cc4c3CCN12 (stereo not drawn) | > 1620 nM | > 1620 nM | 34.3 µg/mL (≈ 62.8 µM) | > 1620 nM | 
3 | COCCCOc1ccc2[nH]c3c(c2c1)CCN1C(=O)c2cc(F)cc(F)c2N(c2cccc(F)c2)C31 (stereo not drawn) | > 1620 nM | > 1620 nM | 71.4 µg/mL (≈ 141 µM) | > 1620 nM | 
4 | CN1CCN(CCOc2ccc3[nH]c4c(c3c2)CCN2C(=O)c3cc(F)cc(F)c3N(c3cccc(F)c3)C42)CC1 (stereo not drawn) | > 1620 nM | > 1620 nM | 103 µg/mL (≈ 183 µM) | > 1620 nM | 
5 | O=C(O)COc1ccc2[nH]c3c(c2c1)CCN1C(=O)c2cc(F)cc(F)c2N(c2cccc(F)c2)C31 (stereo not drawn) | > 1620 nM | > 1620 nM | 72.5 µg/mL (≈ 147 µM) | > 1620 nM | 
6 | O=C(Oc1ccc2[nH]c3c(c2c1)CCN1C(=O)c2cc(F)cc(F)c2N(c2cccc(F)c2)C31)N1CCC(N2CCCCC2)CC1 (stereo not drawn) | > 1620 nM | > 1620 nM | 34.5 µg/mL (≈ 54.8 µM) | > 1620 nM | 
7 | COCCOc1ccc2[nH]c3c(c2c1)CCN1C(=O)c2cc(F)cc(F)c2N(c2cccc(F)c2)C31 (stereo not drawn) | 1530 nM | 1580 nM | 1.3 µg/mL (≈ 2.63 µM) | 1280 nM | 
8 | O=C(Oc1ccc2[nH]c3c(c2c1)CCN1C(=O)c2cc(F)cc(F)c2N(c2cccc(F)c2)C31)N1CCNCC1 (stereo not drawn) | > 1620 nM | > 1620 nM | 1.5 µg/mL (≈ 2.74 µM) | > 1620 nM | 
9 | O=C1c2cc(F)cc(F)c2N(c2cccc(F)c2)C2c3[nH]c4ccc(OCCN5CCOCC5)cc4c3CCN12 (stereo not drawn) | > 1620 nM | > 1620 nM | 9.5 µg/mL (≈ 17.3 µM) | > 1620 nM | 
10 | CCN(CC)C(=O)Oc1ccc2[nH]c3c(c2c1)CCN1C(=O)c2cc(F)cc(F)c2N(c2cccc(F)c2)C31 (stereo not drawn) | > 1620 nM | > 1620 nM | 5.5 µg/mL (≈ 10.3 µM) | > 1620 nM | 
11 | COP(=O)(OC)Oc1ccc2[nH]c3c(c2c1)CCN1C(=O)c2cc(F)cc(F)c2N(c2cccc(F)c2)C31 (stereo not drawn) | > 1620 nM | > 1620 nM | 1.9 µg/mL (≈ 3.5 µM) | > 1620 nM | 
12 | O=C1c2cc(F)cc(F)c2N(c2cccc(F)c2)C2c3[nH]c4ccc(OCCCN5CCOCC5)cc4c3CCN12 (stereo not drawn) | > 1620 nM | > 1620 nM | 11.6 µg/mL (≈ 20.6 µM) | > 1620 nM | 
13 | O=C1c2cc(F)cc(F)c2N(c2cccc(F)c2)C2c3[nH]c4ccc(OCCCN5CCCCC5)cc4c3CCN12 (stereo not drawn) | > 1620 nM | > 1620 nM | 100 µg/mL (≈ 179 µM) | > 1620 nM | 
14 | O=C1c2cc(F)cc(F)c2N(c2cccc(F)c2)C2c3[nH]c4ccc(OCCN5CCNCC5)cc4c3CCN12 (stereo not drawn) | > 1620 nM | > 1620 nM | 50.5 µg/mL (≈ 92.2 µM) | > 1620 nM | 
15 | COc1cccc2c1C(=O)c1c(O)c3c(c(O)c1C2=O)C[C@@](O)(C(=O)CO)C[C@@H]3O[C@H]1C[C@H](N)[C@H](O)[C@H](C)O1 [DOXORUBICIN] |  |  |  |  | IC50 [23]: 1350 nM; Ratio [24]: 9; IC50 [25]: 150 nM
16 | O=C1c2cc(F)cc(F)c2N(c2cccc(F)c2)C2c3[nH]c4ccc(OCCCN5CCCC5)cc4c3CCN12 (stereo not drawn) | > 1620 nM | > 1620 nM | 61.1 µg/mL (≈ 112 µM) | > 1620 nM | 
17 | CC[C@@]1(O)C(=O)OCc2c1cc1n(c2=O)Cc2cc3c(CN(C)C)c(O)ccc3nc2-1 [TOPOTECAN] | 3750 nM | 1510 nM |  | 1040 nM | 
18 | CNC(=O)c1cc(Oc2ccc(NC(=O)Nc3ccc(Cl)c(C(F)(F)F)c3)cc2)ccn1 [SORAFENIB] |  |  |  |  | IC50 [23]: 5120 nM; IC50 [25]: 3460 nM

Further compounds by falling IC50 [1], results first:

Row | IC50 [1] | IC50 [2] | solubility thermodynamic at 72 h [3] | IC50 [4] | SMILES | other results
19 | 530 nM | 920 nM | 2.5 µg/mL (≈ 4.93 µM) | 1240 nM | CC(C)(O)COc1ccc2[nH]c3c(c2c1)CCN1C(=O)c2cc(F)cc(F)c2N(c2cccc(F)c2)C31 (stereo not drawn) | 
20 | 430 nM | 1380 nM | 53 µg/mL (≈ 105 µM) | 800 nM | CN(C)CCOc1ccc2[nH]c3c(c2c1)CCN1C(=O)c2cc(F)cc(F)c2N(c2cccc(F)c2)C31 (stereo not drawn) | 
21 | 190 nM | 730 nM | 12.2 µg/mL (≈ 24.7 µM) | 510 nM | CC(O)COc1ccc2[nH]c3c(c2c1)CCN1C(=O)c2cc(F)cc(F)c2N(c2cccc(F)c2)C31 (stereo not drawn) | 
22 | 120 nM | 200 nM | 9.5 µg/mL (≈ 19.8 µM) | 280 nM | O=C1c2cc(F)cc(F)c2N(c2cccc(F)c2)C2c3[nH]c4ccc(OCCO)cc4c3CCN12 (stereo not drawn) | 
23 | 70 nM | 40 nM | 0.7 µg/mL (≈ 1.42 µM) | 180 nM | O=C(CO)Oc1ccc2[nH]c3c(c2c1)CCN1C(=O)c2cc(F)cc(F)c2N(c2cccc(F)c2)C31 (stereo not drawn) | 
24 | 50 nM |  | 1 µg/mL (≈ 2.3 µM) |  | O=C1c2cc(F)cc(F)c2N(c2cccc(F)c2)C2c3[nH]c4ccc(O)cc4c3CCN12 (stereo not drawn) | Activity [5]: 1.63%; Activity [6]: 61.44%; viability at 0.08 µM [7]: 81.1%; Activity [8]: 6.84%; Activity [9]: 5.79%; Activity [10]: 25.51%; Activity [11]: 10.75%; Activity [12]: 1.19%; Activity [13]: 66.31%; Activity [14]: 8.18%; Activity [15]: 10.46%; Activity [16]: 7.51%; Activity [17]: 22.1%; viability at 0.08 µM [18]: 66.2%; Activity [19]: 86.71%; Activity [20]: 10.49%; Activity [21]: 10.62%; Activity [22]: 31.15%
25 | 40 nM | 40 nM | 11.8 µg/mL (≈ 22.1 µM) | 40 nM | CN(C)CCC(=O)Oc1ccc2[nH]c3c(c2c1)CCN1C(=O)c2cc(F)cc(F)c2N(c2cccc(F)c2)C31 (stereo not drawn) | 
26 | 40 nM | 30 nM | 10.1 µg/mL (≈ 18 µM) | 80 nM | O=C(CCN1CCCC1)Oc1ccc2[nH]c3c(c2c1)CCN1C(=O)c2cc(F)cc(F)c2N(c2cccc(F)c2)C31 (stereo not drawn) | 
27 | 40 nM | 30 nM | 8.7 µg/mL (≈ 16.7 µM) | 100 nM | CN(C)CC(=O)Oc1ccc2[nH]c3c(c2c1)CCN1C(=O)c2cc(F)cc(F)c2N(c2cccc(F)c2)C31 (stereo not drawn) | 
28 | 40 nM | 40 nM | 3 µg/mL (≈ 5.91 µM) | 90 nM | COCC(=O)Oc1ccc2[nH]c3c(c2c1)CCN1C(=O)c2cc(F)cc(F)c2N(c2cccc(F)c2)C31 (stereo not drawn) | 
29 | 20 nM | 90 nM | 6.1 µg/mL (≈ 11.4 µM) | 70 nM | O=C(O)CCC(=O)Oc1ccc2[nH]c3c(c2c1)CCN1C(=O)c2cc(F)cc(F)c2N(c2cccc(F)c2)C31 (stereo not drawn) | 
